Several values for one entry are separate records, joined by “and”; a condition that tells them apart may be missing. Identical values can stand only once.

The text below walks through data of PubChem BioAssay AID1918945 (Molecular Pharmacology Branch, DTP, NCI, 2023).

The assay concerns 883617-216-R-J1-PDC complex spheroid viability. Kind of assay: Anticancer human tumor 883617-216-R-J1-PDC patient-derived bladder carcinoma cell line growth inhibition. The settings on record: for viability, T/C: stronger effect = lower value. The method in brief:
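Multicellular complex spheroids of tumor cells with human endothelial cells (HUVEC) and mesenchymal stem cells; the LSD1 inhibitor iadademstat was combined with standard-of-care or investigational agents. Top concentration at or near clinical Cmax, half-log dilutions; final DMSO ≤0.25%.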

Where [1] appears, read: curve of first compound, second compound 0.1 µM.
[2] abbreviates: curve of first compound, second compound 0.316 µM.
[3] abbreviates: curve of first compound, second compound 1 µM.
Setting [4] is: curve of first compound, second compound 3.16 µM.
[5] abbreviates: curve of first compound, second compound 10 µM.
The mark [6] stands for this setting: second compound 0.1 µM, first compound 0.000316 µM.
Where [7] appears, read: second compound 0.1 µM, first compound 0.001 µM.
[8] abbreviates: second compound 0.1 µM, first compound 0.00316 µM.
[9] abbreviates: second compound 0.1 µM, first compound 0.01 µM.
The mark [10] stands for this setting: second compound 0.1 µM, first compound 0.0316 µM.
Where [11] appears, read: second compound 0.1 µM, first compound 0.1 µM.
[12] abbreviates: second compound 0.316 µM, first compound 0.000316 µM.
[13] abbreviates: second compound 0.316 µM, first compound 0.001 µM.
[14] abbreviates: second compound 0.316 µM, first compound 0.00316 µM.
[15] abbreviates: second compound 0.316 µM, first compound 0.01 µM.
The mark [16] stands for this setting: second compound 0.316 µM, first compound 0.0316 µM.
The mark [17] stands for this setting: second compound 0.316 µM, first compound 0.1 µM.
The mark [18] stands for this setting: second compound 1 µM, first compound 0.000316 µM.
Where [19] appears, read: second compound 1 µM, first compound 0.001 µM.
[20] abbreviates: second compound 1 µM, first compound 0.00316 µM.
Setting [21] is: second compound 1 µM, first compound 0.01 µM.
The mark [22] stands for this setting: second compound 1 µM, first compound 0.0316 µM.
Setting [23] is: second compound 1 µM, first compound 0.1 µM.
[24] abbreviates: second compound 3.16 µM, first compound 0.000316 µM.
[25] abbreviates: second compound 3.16 µM, first compound 0.001 µM.
The mark [26] stands for this setting: second compound 3.16 µM, first compound 0.00316 µM.
The mark [27] stands for this setting: second compound 3.16 µM, first compound 0.01 µM.
Setting [28] is: second compound 3.16 µM, first compound 0.0316 µM.
[29] abbreviates: second compound 3.16 µM, first compound 0.1 µM.
Where [30] appears, read: second compound 10 µM, first compound 0.000316 µM.
[31] abbreviates: second compound 10 µM, first compound 0.001 µM.
The mark [32] stands for this setting: second compound 10 µM, first compound 0.00316 µM.
Where [33] appears, read: second compound 10 µM, first compound 0.01 µM.
Setting [34] is: second compound 10 µM, first compound 0.0316 µM.
Setting [35] is: second compound 10 µM, first compound 0.1 µM.
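Further: exposure lasted seven days after three days of spheroid growth.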
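Wherever viability, T/C is given: 100% = DMSO vehicle control luminescence.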

A word on the IC50: it is the concentration at which inhibition is half-maximal. In general, viability, T/C refers to the result in the treated group divided by that in the control group, in per cent. For the molecule `COc1cc(C2c3cc4c(cc3C(OC3OC5COC(C)OC5C(O)C3O)C3COC(=O)C23)OCO4)cc(OC)c1O` (configuration not stated) + NC1CCC(NC2CC2c2ccccc2)CC1, the IC50 amounted to 377 nM under setting [1]; 645 nM under setting [2]; 830 nM under setting [3]; 587 nM under setting [4]; 1750 nM under setting [5]. Moreover, the viability, T/C reads like this: (second compound 0.1 µM, first compound 0.00949 µM) 96.9%; (second compound 0.1 µM, first compound 0.03 µM) 94.1%; (second compound 0.1 µM, first compound 0.0949 µM) 72.5%; (second compound 0.1 µM, first compound 0.3 µM) 51.6%; (second compound 0.1 µM, first compound 0.949 µM) 45.8%; (second compound 0.1 µM, first compound 3 µM) 38.3%. In addition, the viability, T/C (second compound 0.316 µM, first compound 0.00949 µM) was 101%; the viability, T/C (second compound 0.316 µM, first compound 0.03 µM) was 94%; the viability, T/C (second compound 0.316 µM, first compound 0.0949 µM) is 80.1%; the viability, T/C (second compound 0.316 µM, first compound 0.3 µM) is 51.4%; the viability, T/C (second compound 0.316 µM, first compound 0.949 µM) was 54%; the viability, T/C (second compound 0.316 µM, first compound 3 µM) is 43.4%. In addition, the viability, T/C is 104% (second compound 1 µM, first compound 0.00949 µM); 83% (second compound 1 µM, first compound 0.03 µM); 67.3% (second compound 1 µM, first compound 0.0949 µM); 56.2% (second compound 1 µM, first compound 0.3 µM); 49.2% (second compound 1 µM, first compound 0.949 µM); 44.6% (second compound 1 µM, first compound 3 µM). The viability, T/C is 106% (second compound 3.16 µM, first compound 0.00949 µM); 95.5% (second compound 3.16 µM, first compound 0.03 µM); 70.9% (second compound 3.16 µM, first compound 0.0949 µM); 53.2% (second compound 3.16 µM, first compound 0.3 µM); 51.8% (second compound 3.16 µM, first compound 0.949 µM); 41.8% (second compound 3.16 µM, first compound 3 µM). Further, the viability, T/C by setting is: (second compound 10 µM, first compound 0.00949 µM) 122%; (second compound 10 µM, first compound 0.03 µM) 99.8%; (second compound 10 µM, first compound 0.0949 µM) 75.4%; (second compound 10 µM, first compound 0.3 µM) 60.2%; (second compound 10 µM, first compound 0.949 µM) 56.4%; (second compound 10 µM, first compound 3 µM) 45.6%.

For the molecule `Cn1ncnc1C1c2n[nH]c(=O)c3cc(F)cc(c23)NC1c1ccc(F)cc1` (configuration not stated) + NC1CCC(NC2CC2c2ccccc2)CC1, the IC50 reads like this: under setting [1], more than 100 nM; under setting [2], more than 100 nM; under setting [3], more than 100 nM; under setting [4], more than 100 nM; under setting [5], more than 100 nM. For the same molecule, the viability, T/C runs as follows: under setting [6], 110%; under setting [7], 110%; under setting [8], 103%; under setting [9], 91.6%; under setting [10], 68.5%; under setting [11], 66.6%. Besides, the viability, T/C runs as follows: under setting [12], 113%; under setting [13], 111%; under setting [14], 97.6%; under setting [15], 89.7%; under setting [16], 72.7%; under setting [17], 60%. In addition, the viability, T/C reads like this: under setting [18], 112%; under setting [19], 113%; under setting [20], 99.2%; under setting [21], 93.9%; under setting [22], 67.3%; under setting [23], 57.7%. Besides, the viability, T/C is 101% under setting [24]; 102% under setting [25]; 99.2% under setting [26]; 85.2% under setting [27]; 69.2% under setting [28]; 69.7% under setting [29]. Moreover, the viability, T/C reads like this: under setting [30], 107%; under setting [31], 106%; under setting [32], 108%; under setting [33], 90.6%; under setting [34], 72.8%; under setting [35], 66.2%.

With `CC(C)CC(NC(=O)C(Cc1ccccc1)NC(=O)c1cnccn1)B(O)O` (configuration not stated) + NC1CCC(NC2CC2c2ccccc2)CC1, the IC50 is 1.85 nM under setting [1]; 1.79 nM under setting [2]; 1.59 nM under setting [3]; 1.62 nM under setting [4]; 1.76 nM under setting [5]. Also, the viability, T/C is 105% under setting [6]; 92.2% under setting [7]; 13.2% under setting [8]; 3.29% under setting [9]; 2.15% under setting [10]; 0.25% under setting [11]. The viability, T/C is 112% under setting [12]; 91.8% under setting [13]; 8.98% under setting [14]; 1.9% under setting [15]; 0.32% under setting [16]; 0.82% under setting [17]. For the same molecule, the viability, T/C by setting is: under setting [18], 108%; under setting [19], 74.6%; under setting [20], 13.2%; under setting [21], 1.21%; under setting [22], 0.94%; under setting [23], 0.72%. For the same molecule, the viability, T/C is 112% under setting [24]; 79.6% under setting [25]; 9.32% under setting [26]; 1.86% under setting [27]; 1.46% under setting [28]; 0.83% under setting [29]. Further, the viability, T/C runs as follows: under setting [30], 101%; under setting [31], 92.5%; under setting [32], 6.31%; under setting [33], 0.91%; under setting [34], 0.79%; under setting [35], 0.32%.

With `Nc1ncn(C2CC(O)C(CO)S2)c(=O)n1` (configuration not stated), the viability, T/C (compound 0.000949 µM) was 108% and 85.9%; the viability, T/C (compound 0.003 µM) was 105% and 77%; the viability, T/C (compound 0.00949 µM) is 87.3% and 55.7%; the viability, T/C (compound 0.03 µM) is 69% and 39.4%; the viability, T/C (compound 0.0949 µM) is 58% and 34.1%; the viability, T/C (compound 0.3 µM) was 44% and 27.4%.

For `CC(C)CC(NC(=O)CNC(=O)c1cc(Cl)ccc1Cl)B1OC(=O)CC(CC(=O)O)(C(=O)O)O1` (configuration not stated), the viability, T/C by setting is: (compound 0.000316 µM) 101% and 95.7%; (compound 0.001 µM) 106% and 87%; (compound 0.00316 µM) 85% and 52.1%; (compound 0.01 µM) 39.5% and 23.1%; (compound 0.0316 µM) 15.8% and 1.76%; (compound 0.1 µM) 2.31% and 0.36%. For the same molecule, the IC50 (curve of compound) is 7.91 nM and 3.68 nM.

For `CC[C@@]1(O)C(=O)OCc2c1cc1n(c2=O)Cc2cc3c(CN(C)C)c(O)ccc3nc2-1`, the viability, T/C is 95.7% and 78.2% (compound 0.000316 µM); 78.1% and 65.8% (compound 0.001 µM); 60.2% and 37.7% (compound 0.00316 µM); 38.6% and 29.1% (compound 0.01 µM); 39.1% and 27.6% (compound 0.0316 µM); 27.7% and 20% (compound 0.1 µM). For the same molecule, under “curve of compound”, the IC50 was 5.86 nM and 1.95 nM.

For `NS(=O)(=O)OCC1CC(n2ccc3c(NC4CCc5ccccc54)ncnc32)CC1O` (configuration not stated), the viability, T/C is, setting by setting: (compound 0.00949 µM) 105% and 114%; (compound 0.03 µM) 120% and 108%; (compound 0.0949 µM) 103% and 94.9%; (compound 0.3 µM) 59.1% and 27.2%; (compound 0.949 µM) 21.5% and 8.78%; (compound 3 µM) 14% and 6.66%. Where the note is “curve of compound”, the IC50 was 395 nM and 204 nM.
